Data as given in ChEMBL document CHEMBL1201862, “PubChem BioAssay data set” (2004).
Activity calls are given as the source filed them.

Key:
[1] = molecular target: T1, High affinity choline transporter 1 (Homo sapiens, UniProt Q9GZV3); assay: CHT inhibitors, dose response, cell-based, 10-point CRC, membrane potential dye (AID 588401); type: functional;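 also: membrane potential dye fluorescence of choline-evoked depolarization via CHT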
T1 sequence (Q9GZV3 whole entry): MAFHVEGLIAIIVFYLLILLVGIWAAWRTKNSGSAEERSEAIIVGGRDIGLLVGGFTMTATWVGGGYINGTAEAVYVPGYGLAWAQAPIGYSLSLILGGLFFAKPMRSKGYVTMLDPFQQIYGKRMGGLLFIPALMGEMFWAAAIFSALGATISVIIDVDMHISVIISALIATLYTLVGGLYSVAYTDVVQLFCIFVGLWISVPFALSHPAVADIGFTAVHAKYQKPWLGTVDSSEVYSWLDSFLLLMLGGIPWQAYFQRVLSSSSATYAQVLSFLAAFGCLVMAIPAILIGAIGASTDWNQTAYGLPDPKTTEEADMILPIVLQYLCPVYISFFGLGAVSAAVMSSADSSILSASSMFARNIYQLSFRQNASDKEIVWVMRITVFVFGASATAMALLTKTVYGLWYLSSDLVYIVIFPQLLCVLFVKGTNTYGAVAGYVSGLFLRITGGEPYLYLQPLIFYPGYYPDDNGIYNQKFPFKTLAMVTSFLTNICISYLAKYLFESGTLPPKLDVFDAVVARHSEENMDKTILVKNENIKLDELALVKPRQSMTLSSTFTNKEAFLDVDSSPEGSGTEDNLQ

[2] = molecular target: T1, High affinity choline transporter 1; assay: CHT inhibitors, dose response, cell-based, 5-point CRC, membrane potential dye (AID 504840); type: functional
[3] = molecular target: Multidrug resistance protein CDR2 (Candida albicans (strain SC5314 / ATCC MYA-2876) (Yeast), UniProt P78595); assay: CaCDR2 efflux pump inhibitors in yeast, dose response, S. cerevisiae AD1-8u, singleplex, Cherry Pick2 set (AID 623994); type: functional; conditions: read-out: EC50_MICROM
Multidrug resistance protein CDR2, sequence (P78595 whole entry): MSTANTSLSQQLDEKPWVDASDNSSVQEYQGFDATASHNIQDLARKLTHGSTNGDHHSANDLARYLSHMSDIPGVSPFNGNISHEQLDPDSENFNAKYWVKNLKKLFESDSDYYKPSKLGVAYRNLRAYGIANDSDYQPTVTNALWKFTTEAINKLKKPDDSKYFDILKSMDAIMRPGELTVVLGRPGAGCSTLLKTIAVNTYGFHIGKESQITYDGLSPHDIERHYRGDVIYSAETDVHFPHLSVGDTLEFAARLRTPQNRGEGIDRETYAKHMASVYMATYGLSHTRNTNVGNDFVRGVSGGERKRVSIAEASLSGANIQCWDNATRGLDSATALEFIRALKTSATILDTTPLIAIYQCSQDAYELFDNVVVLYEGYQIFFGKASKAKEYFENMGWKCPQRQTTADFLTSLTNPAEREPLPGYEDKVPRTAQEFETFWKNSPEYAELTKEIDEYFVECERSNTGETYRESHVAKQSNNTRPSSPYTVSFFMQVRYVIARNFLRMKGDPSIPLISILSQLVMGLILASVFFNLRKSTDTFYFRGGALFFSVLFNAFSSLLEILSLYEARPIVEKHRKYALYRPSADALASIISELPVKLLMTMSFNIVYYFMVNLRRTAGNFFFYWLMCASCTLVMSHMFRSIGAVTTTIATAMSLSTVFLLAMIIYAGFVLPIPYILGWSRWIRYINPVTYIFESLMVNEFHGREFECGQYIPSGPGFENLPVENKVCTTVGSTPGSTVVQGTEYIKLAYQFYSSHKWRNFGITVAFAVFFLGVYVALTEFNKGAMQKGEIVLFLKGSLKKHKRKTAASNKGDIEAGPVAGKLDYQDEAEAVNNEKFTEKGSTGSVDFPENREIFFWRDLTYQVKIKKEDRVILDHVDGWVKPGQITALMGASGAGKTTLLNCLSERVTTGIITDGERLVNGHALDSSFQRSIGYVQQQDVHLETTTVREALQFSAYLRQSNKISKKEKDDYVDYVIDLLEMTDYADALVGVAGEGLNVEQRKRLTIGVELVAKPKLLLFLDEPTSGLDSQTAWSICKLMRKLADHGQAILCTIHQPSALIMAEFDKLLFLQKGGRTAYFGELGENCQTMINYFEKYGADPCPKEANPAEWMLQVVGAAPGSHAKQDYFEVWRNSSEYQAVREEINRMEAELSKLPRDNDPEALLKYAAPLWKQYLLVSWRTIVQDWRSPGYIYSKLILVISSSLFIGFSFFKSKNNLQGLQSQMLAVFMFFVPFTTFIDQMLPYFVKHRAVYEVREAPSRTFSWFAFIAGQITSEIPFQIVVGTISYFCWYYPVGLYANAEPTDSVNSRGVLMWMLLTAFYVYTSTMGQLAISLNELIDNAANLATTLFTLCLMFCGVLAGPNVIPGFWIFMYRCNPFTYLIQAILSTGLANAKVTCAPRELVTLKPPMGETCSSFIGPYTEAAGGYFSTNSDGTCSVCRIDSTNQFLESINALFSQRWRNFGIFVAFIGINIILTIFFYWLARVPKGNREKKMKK

[4] = C. albicans growth with fluconazole, confirmation, fluorescence, retest (AID 2467); type: functional, cell-based
[5] = NIH-3T3 fibroblast cytotoxicity, dose response, cytotoxicity control, cell-based, fluorescence, Alamar Blue, secondary assay (AID 2327); type: functional;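 also: NIH-3T3 mouse fibroblasts cultured with fluconazole at 8 µg/mL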
[6] = molecular target: T2, ATP-dependent translocase ABCB1 (Homo sapiens, UniProt P08183); assay: ABCB1 efflux inhibitor potency, dose response, Jurkat-DNR cells, JC-1, flow cytometry, set 2 (AID 504569); type: functional; conditions: read-out: EC50_MICROM_;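 also: potency of pump inhibitors that raise cellular JC-1 green fluorescence up to the nicardipine level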
T2 sequence (P08183 whole entry): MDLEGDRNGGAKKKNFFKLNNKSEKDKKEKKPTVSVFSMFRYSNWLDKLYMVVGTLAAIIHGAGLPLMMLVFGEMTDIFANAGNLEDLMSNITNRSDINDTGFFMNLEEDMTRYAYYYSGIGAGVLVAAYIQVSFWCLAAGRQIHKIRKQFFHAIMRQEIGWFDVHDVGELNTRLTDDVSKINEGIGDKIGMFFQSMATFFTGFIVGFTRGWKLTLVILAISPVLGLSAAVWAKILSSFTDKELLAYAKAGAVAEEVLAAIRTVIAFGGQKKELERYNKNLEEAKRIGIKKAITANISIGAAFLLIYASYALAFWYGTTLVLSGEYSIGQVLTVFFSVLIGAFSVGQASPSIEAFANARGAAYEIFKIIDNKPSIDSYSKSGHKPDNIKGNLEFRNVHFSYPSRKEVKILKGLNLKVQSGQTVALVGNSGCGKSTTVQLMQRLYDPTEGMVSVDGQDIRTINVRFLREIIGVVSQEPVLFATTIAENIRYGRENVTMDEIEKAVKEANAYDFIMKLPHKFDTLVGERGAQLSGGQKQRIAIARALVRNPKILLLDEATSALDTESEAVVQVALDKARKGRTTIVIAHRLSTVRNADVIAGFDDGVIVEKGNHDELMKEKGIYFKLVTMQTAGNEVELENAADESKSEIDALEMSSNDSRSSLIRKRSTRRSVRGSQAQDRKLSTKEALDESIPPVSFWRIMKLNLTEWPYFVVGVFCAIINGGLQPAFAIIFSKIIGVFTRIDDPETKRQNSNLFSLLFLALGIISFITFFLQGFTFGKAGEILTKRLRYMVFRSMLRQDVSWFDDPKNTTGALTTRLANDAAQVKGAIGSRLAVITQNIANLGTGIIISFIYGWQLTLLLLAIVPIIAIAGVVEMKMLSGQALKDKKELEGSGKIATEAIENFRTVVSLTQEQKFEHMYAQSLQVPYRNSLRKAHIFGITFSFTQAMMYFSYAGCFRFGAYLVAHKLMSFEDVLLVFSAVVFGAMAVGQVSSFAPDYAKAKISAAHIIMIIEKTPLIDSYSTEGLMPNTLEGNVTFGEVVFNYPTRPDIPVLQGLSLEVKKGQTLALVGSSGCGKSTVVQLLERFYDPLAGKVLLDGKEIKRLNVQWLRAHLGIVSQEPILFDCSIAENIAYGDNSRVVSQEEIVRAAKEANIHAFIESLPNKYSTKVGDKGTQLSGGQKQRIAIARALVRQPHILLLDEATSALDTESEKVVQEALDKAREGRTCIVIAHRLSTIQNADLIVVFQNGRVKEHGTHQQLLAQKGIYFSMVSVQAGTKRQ

[7] = molecular target: T2, ATP-dependent translocase ABCB1; assay: ABCG2 efflux pump inhibitor potency, dose response, Ig-MXP3 cells, JC-1, flow cytometry, set 2 (AID 504566); type: functional; conditions: read-out: EC50_MICROM_;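 also: flow cytometry median green fluorescence of retained JC-1 dye; potency of efflux pump inhibition measured as rising substrate retention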
[8] = molecular target: 72 kDa type IV collagenase (Homo sapiens, UniProt P08253); assay: Dose Response validation of uHTS RPN11 inhibitor hits using a MMP-2 Fluorescence assay.; type: functional
72 kDa type IV collagenase, sequence (P08253 whole entry): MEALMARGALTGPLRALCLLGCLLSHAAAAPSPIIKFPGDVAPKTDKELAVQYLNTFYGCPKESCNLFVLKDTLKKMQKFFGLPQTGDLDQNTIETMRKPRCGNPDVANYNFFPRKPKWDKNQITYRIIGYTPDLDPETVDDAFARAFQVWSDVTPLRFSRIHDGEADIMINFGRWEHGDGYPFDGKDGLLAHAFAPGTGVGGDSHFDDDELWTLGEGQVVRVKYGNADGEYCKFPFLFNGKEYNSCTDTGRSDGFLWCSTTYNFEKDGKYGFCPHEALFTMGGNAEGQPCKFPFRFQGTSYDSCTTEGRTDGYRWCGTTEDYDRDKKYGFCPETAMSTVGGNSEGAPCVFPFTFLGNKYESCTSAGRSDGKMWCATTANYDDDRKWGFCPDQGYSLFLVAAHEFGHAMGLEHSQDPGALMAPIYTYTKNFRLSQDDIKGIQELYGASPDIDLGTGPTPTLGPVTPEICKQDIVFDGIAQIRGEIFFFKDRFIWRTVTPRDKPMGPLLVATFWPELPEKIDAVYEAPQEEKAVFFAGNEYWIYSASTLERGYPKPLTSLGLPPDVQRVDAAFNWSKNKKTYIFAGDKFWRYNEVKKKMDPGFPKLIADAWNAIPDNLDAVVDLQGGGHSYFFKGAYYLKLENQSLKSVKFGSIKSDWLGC

Prothrombin = Prothrombin (Bos taurus, UniProt P00735); assay: thrombin inhibition, dose response, biochemical, fluorescence polarization, uHTS hits (AID 602369); type: functional
[9] = molecular target: 26S proteasome non-ATPase regulatory subunit 14 (Homo sapiens, UniProt O00487); assay: inhibition of proteasome subunit RPN11 – biochemical, fluorescence polarization, uHTS hits, confirmation (AID 602368); type: functional
26S proteasome non-ATPase regulatory subunit 14, sequence (O00487 whole entry): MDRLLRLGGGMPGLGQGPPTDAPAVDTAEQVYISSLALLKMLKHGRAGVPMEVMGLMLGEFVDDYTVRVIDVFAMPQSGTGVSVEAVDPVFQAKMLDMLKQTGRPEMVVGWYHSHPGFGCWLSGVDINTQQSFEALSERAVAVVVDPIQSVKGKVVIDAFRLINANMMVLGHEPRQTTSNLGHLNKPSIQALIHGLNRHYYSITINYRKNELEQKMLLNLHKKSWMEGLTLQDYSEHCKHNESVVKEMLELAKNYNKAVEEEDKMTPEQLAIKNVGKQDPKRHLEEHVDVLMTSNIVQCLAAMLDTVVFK

[10] = molecular target: Multidrug resistance protein CDR1 (Candida albicans, UniProt P43071); assay: CaCDR1 efflux pump inhibitors in yeast, dose response, S. cerevisiae AD1-8u, singleplex, Cherry Pick1 hits (AID 588606); type: functional
[11] = molecular target: Insulin-like growth factor 1 receptor (Homo sapiens, UniProt P08069); assay: Navigating the Kinome. Panel member name: IGF1R; type: functional
[12] = molecular target: Vascular endothelial growth factor receptor 3 (Homo sapiens, UniProt P35916); type: functional;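 also: value from a kinome-wide profiling panel, with FLT4 as the panel member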
[13] = molecular target: Cyclin-dependent kinase 1 (Homo sapiens, UniProt P06493); type: functional;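 also: Kinome-wide panel profiling, with the target listed as panel member CDC2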
Cyclin-dependent kinase 1, sequence (P06493 whole entry): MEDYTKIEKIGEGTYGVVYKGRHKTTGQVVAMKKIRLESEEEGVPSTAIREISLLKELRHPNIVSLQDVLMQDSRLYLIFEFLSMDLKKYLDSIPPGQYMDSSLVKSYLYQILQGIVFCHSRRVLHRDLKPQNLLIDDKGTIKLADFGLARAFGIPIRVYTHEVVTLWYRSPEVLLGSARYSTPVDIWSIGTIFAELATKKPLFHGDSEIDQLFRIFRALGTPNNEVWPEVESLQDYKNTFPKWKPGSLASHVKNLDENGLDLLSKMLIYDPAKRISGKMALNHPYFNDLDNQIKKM

[14] = molecular target: T3, Low molecular weight phosphotyrosine protein phosphatase (Homo sapiens, UniProt P24666); type: functional; conditions: read-out: IC50_Mean
T3 sequence (P24666 whole entry): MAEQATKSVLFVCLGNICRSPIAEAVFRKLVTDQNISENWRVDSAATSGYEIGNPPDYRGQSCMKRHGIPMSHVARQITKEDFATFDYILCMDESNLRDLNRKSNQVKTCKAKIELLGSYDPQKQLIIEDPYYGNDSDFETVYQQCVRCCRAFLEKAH

[15] = molecular target: T3, Low molecular weight phosphotyrosine protein phosphatase; type: functional; conditions: read-out: IC50_Mean; remark: listed apart in the source
[16] = molecular target: T4, Mitochondrial peptide methionine sulfoxide reductase (Bos taurus, UniProt P54149); type: functional;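 also: absorbance read-out, biochemical high-throughput dose-response screen for MsrA inhibitors, confirmatory; recombinant bovine MsrA coupled to E. coli TrxB with NADPH and selenocystamine; potency is for inhibitors of MsrA activity on DMSO substrate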
T4 sequence (P54149 whole entry): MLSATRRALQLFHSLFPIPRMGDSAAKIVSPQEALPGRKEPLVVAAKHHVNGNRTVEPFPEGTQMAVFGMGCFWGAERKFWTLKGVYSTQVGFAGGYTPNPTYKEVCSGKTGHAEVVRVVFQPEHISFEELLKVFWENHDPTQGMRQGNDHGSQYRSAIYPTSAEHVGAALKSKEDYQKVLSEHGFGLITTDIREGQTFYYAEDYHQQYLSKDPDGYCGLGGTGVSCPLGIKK

[17] = molecular target: T5, Sentrin-specific protease 1 (Homo sapiens, UniProt Q9P0U3); assay: potency of human SENP1 inhibitors, dose response, biochemical, kinetic FRET (AID 651697); type: functional; conditions: read-out: IC50_Mean
T5 sequence (Q9P0U3 whole entry, the tested form may be a part): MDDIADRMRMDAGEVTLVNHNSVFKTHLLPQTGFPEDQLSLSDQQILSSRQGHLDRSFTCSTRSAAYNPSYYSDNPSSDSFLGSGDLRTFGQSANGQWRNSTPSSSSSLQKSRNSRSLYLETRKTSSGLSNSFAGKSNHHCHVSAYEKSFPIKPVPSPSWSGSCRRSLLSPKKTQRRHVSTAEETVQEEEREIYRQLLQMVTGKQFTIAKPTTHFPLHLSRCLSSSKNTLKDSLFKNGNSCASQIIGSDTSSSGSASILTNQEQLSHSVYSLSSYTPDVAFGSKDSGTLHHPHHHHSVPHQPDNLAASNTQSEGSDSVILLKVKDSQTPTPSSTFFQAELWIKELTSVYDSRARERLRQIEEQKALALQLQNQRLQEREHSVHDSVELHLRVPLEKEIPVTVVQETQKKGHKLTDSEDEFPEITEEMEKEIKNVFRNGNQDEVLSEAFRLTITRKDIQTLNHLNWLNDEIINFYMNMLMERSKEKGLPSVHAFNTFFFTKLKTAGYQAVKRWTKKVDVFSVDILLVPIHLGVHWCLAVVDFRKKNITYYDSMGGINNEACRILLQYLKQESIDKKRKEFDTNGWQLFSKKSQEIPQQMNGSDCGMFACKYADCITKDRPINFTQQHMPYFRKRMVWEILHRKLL

[18] = molecular target: T5, Sentrin-specific protease 1; assay: Dose response confirmation of small molecule inhibitors of the catalytic domain of the SUMO protease, SENP1 in a FRET assay.; type: functional; conditions: read-out: IC50_Mean

For CCCCn1nc2cc(C(=O)N[C@H](C)C3CCCCC3)ccc2c1OCC, the IC50 [1] was 4.47 µM (active) and the IC50 [2] was 7.76 µM (active).

With CCC(=O)N1CCN(c2ccc(Cl)cc2NC(=O)c2ccc3c(c2)OCCO3)CC1 the EC50 [3] was 32.1 µM (active), the EC50 [4] was 3.35 µM (active) and the EC50 [5] was 117 µM (active).

For O=C(c1ccco1)N1CCN(c2cc(-c3ccccc3)nc3cc(-c4cccc(F)c4)nn23)CC1, the EC50 [6] was 3.4 µM (active) and the EC50 [7] was 1.05 µM (active).

For Cc1cc(C(F)(F)F)nc(SCCN2CCOCC2)c1C#N, the IC50 [8] was > 100 µM (inactive), the IC50 (Prothrombin) was 25.7 µM (active) and the IC50 [9] was 19.7 µM (active).

With O=C(Nc1ccnc(-c2cccnc2)n1)c1cccc(Cl)c1Cl the EC50 [10] was 0.117 µM (active).

With Cc1cc(C)c(C=C2C(=O)Nc3ccccc32)[nH]1 the Ki [11] was > 1 µM (inactive), the Ki [12] was 0.316 µM (active) and the Ki [13] was > 7.94 µM (inactive).

With O=C(CCCOc1ccc(Cl)cc1Cl)NNC(=O)c1ccc(NC(=O)c2ccccc2)cc1 the IC50 [14] was 11.2 µM (active) and the IC50 [15] was 8.44 µM (active).

With C/C(CCC(C)C)=N\Nc1ccc(S(N)(=O)=O)cc1[N+](=O)[O-] the IC50 [16] was 155 µM (inactive).

With O=C(O)c1ccc(N/N=C/c2cccc3nccnc23)cc1 the IC50 [17] was 15.1 µM (active) and the IC50 [18] was 8.97 µM (active).
